Tests used:
[1] = Clinical laboratory assessments (prolactin), Clinical Study Three; conditions: bifeprunox 20, 30 mg; 6 weeks
Source text: To assess the safety and tolerability of bifeprunox using physical examination, weight, waist circumference, vital signs (pulse rate and systolic/diastolic blood pressure [BP], and oral temperature), 12-lead electrocardiogram (ECG), clinical laboratory assessments (hematology, biochemistry including fasting insulin level, fasting glucose, fasting lipid profile, urinalysis, special laboratory assessments for prolactin, IGF-1, IGFBP-3, and thyroid function), need for anticholinergic treatment during double-blind treatment period, concomitant medication use, adverse event (AE) monitoring, and assessments of abnormal movement including the Simpson-Angus Scale (SAS), Barnes Akathisia Scale (BAS), and Abnormal Involuntary Movement Scale (AIMS).

[2] = test system: adult subjects with schizophrenia; assay: CGI responder rate, Clinical Study One; type: in vivo, human
Experimental: (§1) There were five treatment groups in this study. […] Study medication was administered once daily. After Baseline measurements were performed, the titration phase was begun. Bifeprunox treated subjects were titrated up to 5 mg, 10 mg or 20 mg according to a standardized titration schedule (Day 1: 0.125 mg, Day 2: 0.25 mg, Day 3: 0.5 mg, Day 4: 1.0 mg, Day 5: 2.0 mg, Day 6: 5.0 mg, Day 7: 10.0 mg, Day 8: 20 mg). When the assigned dose was reached, subjects were maintained at that dose for the remainder of the six-week treatment period.
CLINICAL STUDY ONE: A CGI responder is defined as a subject who is categorized as “very much improved” or “much improved” on the CGI Improvement scale.

[3] = test system: adult subjects with schizophrenia; assay: PANSS total score, Clinical Study One (6-week, risperidone-referenced); type: in vivo, human; conditions: for Change from Baseline in PANSS Total Score, Mean (S.D.) / Change from Baseline in PANSS Total Score, Median / PANSS Total Score, Trt Effect (bifeprunox minus placebo mean change from Baseline): ITT; for PANSS Total Score, Trt Effect (bifeprunox minus placebo mean change from Baseline): ANCOVA
Experimental: as §1
Test Product. Dose and Mode of Administration: Bifeprunox tablets, total daily dose 0.125 mg to 20 mg administered orally using a once daily dosing regimen.
(§2) The change in the Positive and Negative Symptom Scale (PANSS) total score, from baseline to endpoint, was the primary outcome measure. Secondary efficacy measures included: PANSS positive, PANSS negative, PANSS general psychopathology (GPP) score, PANSS-derived Brief Psychiatric Rating Scale (BPRS) score, Clinical Global Impressions-Severity of Illness (CGI-S), CGI-Improvement (CGI-I) scores, and responder rates. Safety and tolerability evaluations included extrapyramidal symptoms (EPS), weight gain, lipid profile, and serum prolactin.

[4] = test system: adult subjects with schizophrenia; assay: BPRS total score, Clinical Study One; type: in vivo, human; conditions: ITT population
Experimental: as §1, §2

[5] = test system: adult subjects with schizophrenia; assay: CGI Improvement score, Clinical Study Two; type: in vivo, human; conditions: 30 mg; Week 2; LOCF
Experimental: Rating scale assessments were performed weekly, except for week 5, to measure the change from baseline to endpoint of the PANSS total score. Other assessments included: PANSS positive symptom subscale score, PANSS negative symptom subscale score, PANSS general pschopathology subscale score, BPRS total score, BPRS psychosis score, the CGI-S score, the CGI-I score, responder rates based on the PANSS total score, and the Calgary Depression Scale for Schizophrenia (CDSS). […]
Subjects who completed this study had the option to continue in the long-term. […] Risperidone-treated subjects were titrated from 2 mg to 6 mg daily over a three-day period and were subsequently maintained at 6 mg/day for the remainder of the treatment period. […] Blood samples were also obtained at Screening/Baseline, Week 3, and Week 6 for clinical laboratory assessments.

[6] = Bifeprunox 10 mg, Endpoint LOCF
[7] = Bifeprunox 20 mg, Endpoint LOCF

With `O=c1[nH]c2cccc(N3CCN(Cc4cccc(-c5ccccc5)c4)CC3)c2o1` [Bifeprunox, 7-[4-([1,1′-biphenyl]-3-ylmethyl)-1-piperazinyl]-2(3H)-benzoxazolone] the prolactin [1] was “a decrease in prolactin”, the “CGI Responder at Endpoint (LOCF), %” value ([2]; 5 mg) was 33% and the “CGI Responder at Endpoint (LOCF), %” value ([2]; 10 mg) was 19%. For the same compound, the “CGI Responder at Endpoint (LOCF), %” value ([2]; 20 mg) was 25%, the “Change from Baseline in PANSS Total Score, Mean (S.D.)” value ([3]; Bifeprunox 5 mg, Endpoint LOCF) was −9.7 (17.5) and the “Change from Baseline in PANSS Total Score, Median” value ([3]; Bifeprunox 5 mg, Endpoint LOCF) was −8. The “PANSS Total Score, Trt Effect (bifeprunox minus placebo mean change from Baseline)” value ([3]; Bifeprunox 5 mg, Endpoint LOCF) was −4.1, the “Change from Baseline in PANSS Total Score, Mean (S.D.)” value ([3]; Bifeprunox 5 mg, Week 1, LOCF) was −3.9 (13.1) and the “Change from Baseline in PANSS Total Score, Median” value ([3]; Bifeprunox 5 mg, Week 1, LOCF) was −4. For the same compound, the “Change from Baseline in PANSS Total Score, Mean (S.D.)” value ([3]; Bifeprunox 5 mg, Week 2, LOCF) was −6.7 (14.9), the “Change from Baseline in PANSS Total Score, Median” value ([3]; Bifeprunox 5 mg, Week 2, LOCF) was −7 and the “Change from Baseline in PANSS Total Score, Mean (S.D.)” value ([3]; Bifeprunox 5 mg, Week 3, LOCF) was −7.7 (16.1). The “Change from Baseline in PANSS Total Score, Median” value ([3]; Bifeprunox 5 mg, Week 3, LOCF) was −7, the “Change from Baseline in PANSS Total Score, Mean (S.D.)” value ([3]; Bifeprunox 5 mg, Week 4, LOCF) was −8.7 (17.1) and the “Change from Baseline in PANSS Total Score, Median” value ([3]; Bifeprunox 5 mg, Week 4, LOCF) was −7. The “Change from Baseline in PANSS Total Score, Mean (S.D.)” value [3, 6] was −5.0 (18.3), the “Change from Baseline in PANSS Total Score, Median” value [3, 6] was −4 and the “PANSS Total Score, Trt Effect (bifeprunox minus placebo mean change from Baseline)” value [3, 6] was 0.6. The “Change from Baseline in PANSS Total Score, Mean (S.D.)” value ([3]; Bifeprunox 10 mg, Week 1, LOCF) was −2.9 (11.7), the “Change from Baseline in PANSS Total Score, Median” value ([3]; Bifeprunox 10 mg, Week 1, LOCF) was −1 and the “Change from Baseline in PANSS Total Score, Mean (S.D.)” value ([3]; Bifeprunox 10 mg, Week 2, LOCF) was −4.2 (14.6). The “Change from Baseline in PANSS Total Score, Median” value ([3]; Bifeprunox 10 mg, Week 2, LOCF) was −3, the “Change from Baseline in PANSS Total Score, Mean (S.D.)” value ([3]; Bifeprunox 10 mg, Week 3, LOCF) was −4.6 (17.4) and the “Change from Baseline in PANSS Total Score, Median” value ([3]; Bifeprunox 10 mg, Week 3, LOCF) was −3. For the same compound, the “Change from Baseline in PANSS Total Score, Mean (S.D.)” value ([3]; Bifeprunox 10 mg, Week 4, LOCF) was −4.1 (17.2), the “Change from Baseline in PANSS Total Score, Median” value ([3]; Bifeprunox 10 mg, Week 4, LOCF) was −5 and the “Change from Baseline in PANSS Total Score, Mean (S.D.)” value [3, 7] was −11.3 (17.0). For the same compound, the “Change from Baseline in PANSS Total Score, Median” value [3, 7] was −11, the “PANSS Total Score, Trt Effect (bifeprunox minus placebo mean change from Baseline)” value [3, 7] was −5.8 and the “Change from Baseline in PANSS Total Score, Mean (S.D.)” value ([3]; Bifeprunox 20 mg, Week 1, LOCF) was −6.3 (11.5). The “Change from Baseline in PANSS Total Score, Median” value ([3]; Bifeprunox 20 mg, Week 1, LOCF) was −5, the “Change from Baseline in PANSS Total Score, Mean (S.D.)” value ([3]; Bifeprunox 20 mg, Week 2, LOCF) was −9.0 (14.0) and the “Change from Baseline in PANSS Total Score, Median” value ([3]; Bifeprunox 20 mg, Week 2, LOCF) was −8. The “Change from Baseline in PANSS Total Score, Mean (S.D.)” value ([3]; Bifeprunox 20 mg, Week 3, LOCF) was −11.2 (14.5), the “Change from Baseline in PANSS Total Score, Median” value ([3]; Bifeprunox 20 mg, Week 3, LOCF) was −11 and the “Change from Baseline in PANSS Total Score, Mean (S.D.)” value ([3]; Bifeprunox 20 mg, Week 4, LOCF) was −11.2 (15.9). The “Change from Baseline in PANSS Total Score, Median” value ([3]; Bifeprunox 20 mg, Week 4, LOCF) was −11, the “superiority to placebo, primary efficacy endpoint (PANSS total score)” value ([3]; bifeprunox 5 mg, 6 weeks) was “did not show superiority to placebo” and the “improvement compared to placebo, any efficacy endpoint” value ([3]; bifeprunox 10 mg, 6 weeks) was “did not show statistically greater improvement for any efficacy endpoint”. For the same compound, the “efficacy compared to placebo (PANSS total and subscale scores)” value ([3]; bifeprunox 20 mg once daily, 6 weeks) was “effective in reducing both positive and negative symptoms of schizophrenia”, the “greater improvement from Baseline in PANSS total score compared with placebo” value ([3]; bifeprunox 20 mg, 6 weeks) was 5.8 point and the “reduction in the PANSS total score compared to placebo” value ([3]; bifeprunox 20 mg, 6 weeks (Example 4)) was “statistically significant (P<0.05) compared to placebo at Week 3 and Week 6/endpoint”. For the same compound, the “Change from Baseline in BPRS Total Score, Mean (S.D.)” value ([4]; Bifeprunox 5 mg, Endpoint LOCF) was −6.2 (10.5), the “Change from Baseline in BPRS Total Score, Median” value ([4]; Bifeprunox 5 mg, Endpoint LOCF) was −5 and the “Change from Baseline in BPRS Total Score, Trt Effect (bifeprunox—placebo)” value (from here on “Change from Baseline … (bifeprunox—placebo)”) ([4]; Bifeprunox 5 mg, Endpoint LOCF) was −2.4. For the same compound, the “Change from Baseline in BPRS Total Score, Mean (S.D.)” value ([4]; Bifeprunox 5 mg, Week 1, LOCF) was −2.4 (7.5), the “Change from Baseline in BPRS Total Score, Median” value ([4]; Bifeprunox 5 mg, Week 1, LOCF) was −3 and the “Change from Baseline in BPRS Total Score, Mean (S.D.)” value ([4]; Bifeprunox 5 mg, Week 2, LOCF) was −4.2 (8.6). For the same compound, the “Change from Baseline in BPRS Total Score, Median” value ([4]; Bifeprunox 5 mg, Week 2, LOCF) was −4, the “Change from Baseline in BPRS Total Score, Mean (S.D.)” value ([4]; Bifeprunox 5 mg, Week 3, LOCF) was −5.2 (9.7) and the “Change from Baseline in BPRS Total Score, Median” value ([4]; Bifeprunox 5 mg, Week 3, LOCF) was −5. The “Change from Baseline in BPRS Total Score, Mean (S.D.)” value ([4]; Bifeprunox 5 mg, Week 4, LOCF) was −5.6 (10.2), the “Change from Baseline in BPRS Total Score, Median” value ([4]; Bifeprunox 5 mg, Week 4, LOCF) was −5 and the “Change from Baseline in BPRS Total Score, Mean (S.D.)” value [4, 6] was −3.4 (11.5). The “Change from Baseline in BPRS Total Score, Median” value [4, 6] was −2, the “Change from Baseline … (bifeprunox—placebo)” value [4, 6] was −0.6 and the “Change from Baseline in BPRS Total Score, Mean (S.D.)” value ([4]; Bifeprunox 10 mg, Week 1, LOCF) was −2.0 (7.2). The “Change from Baseline in BPRS Total Score, Median” value ([4]; Bifeprunox 10 mg, Week 1, LOCF) was −1, the “Change from Baseline in BPRS Total Score, Mean (S.D.)” value ([4]; Bifeprunox 10 mg, Week 2, LOCF) was −3.1 (9.3) and the “Change from Baseline in BPRS Total Score, Median” value ([4]; Bifeprunox 10 mg, Week 2, LOCF) was −3. The “Change from Baseline in BPRS Total Score, Mean (S.D.)” value ([4]; Bifeprunox 10 mg, Week 3, LOCF) was −3.3 (10.9), the “Change from Baseline in BPRS Total Score, Median” value ([4]; Bifeprunox 10 mg, Week 3, LOCF) was −2 and the “Change from Baseline in BPRS Total Score, Mean (S.D.)” value ([4]; Bifeprunox 10 mg, Week 4, LOCF) was −3.1 (10.7). For the same compound, the “Change from Baseline in BPRS Total Score, Median” value ([4]; Bifeprunox 10 mg, Week 4, LOCF) was −3, the “Change from Baseline in BPRS Total Score, Mean (S.D.)” value [4, 7] was −7.6 (10.1) and the “Change from Baseline in BPRS Total Score, Median” value [4, 7] was −8. For the same compound, the “Change from Baseline … (bifeprunox—placebo)” value [4, 7] was −3.5, the “Change from Baseline in BPRS Total Score, Mean (S.D.)” value ([4]; Bifeprunox 20 mg, Week 1, LOCF) was −4.3 (7.3) and the “Change from Baseline in BPRS Total Score, Median” value ([4]; Bifeprunox 20 mg, Week 1, LOCF) was −3. For the same compound, the “Change from Baseline in BPRS Total Score, Mean (S.D.)” value ([4]; Bifeprunox 20 mg, Week 2, LOCF) was −6.1 (8.8), the “Change from Baseline in BPRS Total Score, Median” value ([4]; Bifeprunox 20 mg, Week 2, LOCF) was −7 and the “Change from Baseline in BPRS Total Score, Mean (S.D.)” value ([4]; Bifeprunox 20 mg, Week 3, LOCF) was −7.5 (9.1). For the same compound, the “Change from Baseline in BPRS Total Score, Median” value ([4]; Bifeprunox 20 mg, Week 3, LOCF) was −8, the “Change from Baseline in BPRS Total Score, Mean (S.D.)” value ([4]; Bifeprunox 20 mg, Week 4, LOCF) was −7.7 (9.7) and the “Change from Baseline in BPRS Total Score, Median” value ([4]; Bifeprunox 20 mg, Week 4, LOCF) was −8. For the same compound, the “CGI Improvement Minimally Improved, %” value [5] was “(33%)”.
